According to patent publication US4853401A, “Spiro-hydantoins as aldose reductase inhibitors” (priority 1987, dated 1989):

Legend:
[1] = test system: sorbitol accumulation in sciatic nerves; experiment: Effect of in vivo doses on sorbitol accumulation in sciatic nerves of diabetic rats; set-up: species or system Sprague Dawley rats
Text: (§1) 2.2 Effect of "in vivo" doses on sorbitol accumulation in sciatic nerves and crystalline lenses of diabetic rats:
(§2) Estimates were made of the effects of the products on the proportion of plasma glucose and the sorbitol content of the crystalline lenses and sciatic nerves of rats.

[2] = test system: accumulation of sorbitol in the sciatic nerves; experiment: Preventive effect of single dose: sorbitol in sciatic nerves; assay type: in vivo, Sprague Dawley rats; settings: 10 mg/kg oral
Description: (§3) 2.3. In vivo effects of a single dose of compound No. 2 (CP 3192 AR) on the variation in the proportion of plasma glucose and the accumulation of sorbitol in the crystalline lenses and sciatic nerves of diabetic rats.
(§4) 2.3.1. Preventive effect. CP 3192 AR was administered simultaneously with the induction of diabetes. The experiment was performed on 33 male Sprague Dawley rats weighing about 200 g.
(§5) At time 0 hours, 3 rats were sacrificed and used as non-diabetic controls. 30 fats fasted the previous day were made diabetic by an intraperitoneal injection of streptozotocin (75 mg/kg). A dose of 10 mg/kg of CP 3192 AR was simultaneously administered orally to 15 of the rats. The other 15 were given a placebo. 3 control rats and 3 rats treated with CP 3192 AR were sacrificed 2, 4, 8, 24 and 48 hours after induction of diabetes.
(§6) An estimate was made of the effects of the product on the proportion of plasma glucose and the sorbitol content of the crystalline lenses and sciatic nerves.

[3] = test system: sorbitol accumulation in crystalline lenses; experiment: Effect of in vivo doses on sorbitol accumulation in crystalline lenses of diabetic rats; set-up: species or system Sprague Dawley rats
Text: as §1, §2

[4] = test system: accumulation of sorbitol in the crystalline lenses; experiment: Inhibition of accumulation of sorbitol in crystalline lenses of diabetic rats; assay type: in vivo, Sprague Dawley rats
[5] = test system: accumulation of sorbitol in the crystalline lenses; experiment: Curative effect of single dose: sorbitol in crystalline lenses; assay type: in vivo, Sprague Dawley rats; settings: for Accumulation of sorbitol in crystalline lenses, treated: 10 mg/kg oral
Description: (§7) 2.3.2. Curative effect: CP 3192 AR was administered 24 hours after induction of diabetes.
(§8) As before, the experiment was made on 33 male Sprague Dawley rats weighing about 200 g. The 33 rats, which had been fasted the previous day, were made diabetic by an intraperitoneal injection of streptozotocin (75 mg/kg).
(§9) 24 hours after induction of diabetes, 3 rats were sacrificed and used as diabetic controls. A dose of 10 mg/kg of CP 3192 AR was orally administered to 15 rats whereas the other 15 were given the excipient without an active product. 3 control rats and 3 rats treated with CP 3192 AR were sacrificed 2, 4, 8, 24 and 48 hours after administration of the product.
(§10) Estimates were made of the effects of the product on the proportion of plasma glucose and the sorbitol content of the crystalline lenses and sciatic nerves of rats made diabetic by streptozotocin.

mice = experiment: Effect on behaviour (Irwin method), side effects; assay type: in vivo
Description: The effect on behaviour was studied by a method derived from that of S. Irwin (Gordon Res. Conf. on Medicinal Chem., 133, 1959). The substances, suspended in 1% tragacanth mucilage, were orally administered via an intra-gastric probe to groups of 5 male mice fasted for 18 hours. The maximum tested dose was 3 000 mg/kg or 1 000 mg/kg, and smaller doses were tested if an effect has been observed.
Behaviour was studied, 2, 4, 6 and 24 hours after treatment. Observation was continued if symptoms persisted at that time. Deaths were recorded during the 14 days after treatment. The results are given in Table II, in which the numbers of the compounds are the same as the numbers given in column 1 of Table I.

[6] = test system: accumulation of sorbitol in the crystalline lenses; experiment: Preventive effect of single dose: sorbitol in crystalline lenses; assay type: in vivo, Sprague Dawley rats; settings: for Accumulation of sorbitol in crystalline lenses, treated: 10 mg/kg oral
Description: as §3, §4, §5, §6

[7] = Curative effect of single dose: plasma glucose; assay type: in vivo, Sprague Dawley rats; settings: for Plasma glucose, treated: 10 mg/kg oral 24 h after diabetes induction
Description: as §7, §8, §9, §10

[8] = test system: accumulation of sorbitol in the sciatic nerves; experiment: Curative effect of single dose: sorbitol in sciatic nerves; assay type: in vivo, Sprague Dawley rats; settings: for Accumulation of sorbitol in sciatic nerves, treated: 10 mg/kg oral
Description: as §7, §8, §9, §10

[9] = single dose 10 mg/kg, lenses and sciatic nerves

SMILES: CC(=O)OCN1C(=O)N(COC(C)=O)C2(C1=O)c1ccccc1-c1ccccc12 [Compound 2, bis-(1',3'-acetoxymethyl)-spiro-/fluorene-9,4'-imidazolidine/-2',5'-dione]
- % inhibition of sorbitol accumulation, Sciatic nerves ([1]; 0.3 mg/kg oral at 0, 7, 24 h): 42 ± 9%
- % inhibition of sorbitol accumulation, Sciatic nerves ([1]; 1 mg/kg oral at 0, 7, 24 h): 40 ± 17%
- % inhibition of sorbitol accumulation, Sciatic nerves ([1]; 3 mg/kg oral at 0, 7, 24 h): 68 ± 11%
- % inhibition of sorbitol accumulation, Sciatic nerves ([1]; 10 mg/kg oral at 0, 7, 24 h): 79 ± 9%
- ED50 ([1]; Rattus norvegicus, 27 h, sciatic nerves, diabetic rats, oral, read-out: ED50 (dose at which measured inhibition of aldose reductase activity is 50%)): 1 mg/kg
- therapeutic index MED/ED50, sciatic nerves ([1]; sciatic nerves): above 3 000
- Accumulation of sorbitol in sciatic nerves, treated ([2]; 2 h, p < 0.05): 1.23 ± 0.2 µg
- Accumulation of sorbitol in sciatic nerves, treated ([2]; 4 h, p < 0.005): 1.8 ± 0.2 µg
- Accumulation of sorbitol in sciatic nerves, treated ([2]; 8 h, p < 0.0005): 1.8 ± 0.5 µg
- Accumulation of sorbitol in sciatic nerves, treated ([2]; 24 h, p < 0.05): 4.0 ± 1.0 µg
- Accumulation of sorbitol in sciatic nerves, treated ([2]; 48 h, p < 0.05): 4.6 ± 1.7 µg
- % inhibition of sorbitol accumulation, Crystalline lenses ([3]; 0.3 mg/kg oral at 0, 7, 24 h): 3 ± 25%
- % inhibition of sorbitol accumulation, Crystalline lenses ([3]; 1 mg/kg oral at 0, 7, 24 h): 13%
- % inhibition of sorbitol accumulation, Crystalline lenses ([3]; 3 mg/kg oral at 0, 7, 24 h): 46%
- % inhibition of sorbitol accumulation, Crystalline lenses ([3]; 10 mg/kg oral at 0, 7, 24 h): 66%
- ED50 ([3]; Rattus norvegicus, 27 h, crystalline lenses, diabetic rats, oral, read-out: ED50 (dose at which measured inhibition of aldose reductase activity is 50%)): 3 mg/kg
- therapeutic index MED/ED50, crystalline lenses ([3]; crystalline lenses): about 1 000
- Inhibition of accumulation of sorbitol in vivo, crystalline lenses ([4]; oral 25 mg/kg at 0, 7 and 24 h, sacrificed 27 h): 86%
- inhibition of accumulation of sorbitol in crystalline lenses and sciatic nerves (in words) ([4]; oral 25 mg/kg, lenses and sciatic nerves): particularly active
- Accumulation of sorbitol in crystalline lenses, treated ([5]; 2 h after administration): 103 ± 27 µg
- Accumulation of sorbitol in crystalline lenses, treated ([5]; 4 h after administration): 99 ± 5 µg
- Accumulation of sorbitol in crystalline lenses, treated ([5]; 8 h after administration): 125 ± 8 µg
- Accumulation of sorbitol in crystalline lenses, treated ([5]; 24 h after administration, p <0.0005): 73 ± 18 µg
- Accumulation of sorbitol in crystalline lenses, treated ([5]; 48 h after administration, p < 0.05): 142 ± 47 µg
- accumulation of sorbitol in crystalline lenses (in words) ([5]; single dose 10 mg/kg): completely inhibits
- duration of effect [5, 9]: ≥ 48 h
- side effect observed (mice; dose of 3000 mg/kg): no side effect was observed
- MED (minimum dose at which a side effect is observed) (mice; mice, oral): > 3 000 mg/kg
- mutagenic effect (Ames test): does not have a mutagenic effect
- Accumulation of sorbitol in crystalline lenses, treated ([6]; 2 h): 3 ± 0 µg
- Accumulation of sorbitol in crystalline lenses, treated ([6]; 4 h, p < 0.005): 6.3 ± 0.6 µg
- Accumulation of sorbitol in crystalline lenses, treated ([6]; 8 h, p < 0.05): 12.3 ± 4.0 µg
- Accumulation of sorbitol in crystalline lenses, treated ([6]; 24 h, p < 0.05): 52 ± 10.1 µg
- Accumulation of sorbitol in crystalline lenses, treated ([6]; 48 h): 92.7 ± 18.6 µg
- duration of effect on sorbitol accumulation [6, 9]: at least 48 hours
- onset of effect on sorbitol accumulation [6, 9]: observed as soon as soribol began to accumulate
- Plasma glucose, treated ([7]; 2 h): 406 ± 28 mg/100 ml
- Plasma glucose, treated ([7]; 4 h): 459 ± 73 mg/100 ml
- Plasma glucose, treated ([7]; 8 h): 575 ± 14 mg/100 ml
- Plasma glucose, treated ([7]; 24 h): 478 ± 83 mg/100 ml
- Plasma glucose, treated ([7]; 48 h): 456 ± 117 mg/100 ml
- effect on the proportion of plasma glucose ([7]; single dose 10 mg/kg): no effect
- Accumulation of sorbitol in sciatic nerves, treated ([8]; 2 h after administration): 4.8 ± 2.0 µg
- Accumulation of sorbitol in sciatic nerves, treated ([8]; 4 h after administration, n = 1): 4.0 µg
- Accumulation of sorbitol in sciatic nerves, treated ([8]; 8 h after administration, n = 1): 2.2 µg
- Accumulation of sorbitol in sciatic nerves, treated ([8]; 24 h after administration): 2.5 ± 0.4 µg
- Accumulation of sorbitol in sciatic nerves, treated ([8]; 48 h after administration): 5.9 ± 1.8 µg
- proportion of sorbitol in sciatic nerves (in words) ([8]; single dose 10 mg/kg): greatly reduces
